# Reference: PubChem BioAssay (NCI)
#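 GI50: concentration for 50% inhibition of growth. At the TGI there is no net growth.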
# How the values were obtained:
# Assay in all cases: DTP human tumour cell line panel, 384-well format
# [1] = system: NCI-H226 lung
# [2] = system: NCI-H23 lung
# [3] = system: NCI-H322M lung
# [4] = system: NCI-H460 NSCLC
# [5] = system: NCI-H522 lung
# [6] = system: NCI/ADR-RES ovarian
# [7] = system: OVCAR-3 ovarian
# [8] = system: OVCAR-4 ovarian
# [9] = system: OVCAR-5 ovarian
# [10] = system: OVCAR-8 ovarian
# [11] = system: PC-3 prostate
# [12] = system: RPMI-8226 leukemia
# [13] = system: RXF 393 renal
# [14] = system: SF-268 CNS
# [15] = system: SF-295 CNS
# [16] = system: SF-539 CNS
# [17] = system: SK-MEL-28 melanoma
# [18] = system: SK-MEL-5 melanoma
# [19] = system: SK-OV-3 ovarian
# [20] = system: SN12C renal
# [21] = system: SNB-19 CNS
# [22] = system: SNB-75 CNS
# [23] = system: SR leukemia
# [24] = system: SW-620 colon
# [25] = system: T-47D breast
# [26] = system: TK-10 renal
# [27] = system: U251 glioblastoma
# [28] = system: UACC-257 melanoma
# [29] = system: UO-31 renal
structure (smiles),measurement,setting,value
COc1c/c(=C2/C=c3ccccc3=N2)[nH]/c1=C/c1[nH]c(C)cc1C,GI50,[1],15.3 nM
same,TGI,[1],32.3 nM
same,GI50,[2],24.7 nM
same,TGI,[2],63 nM
same,GI50,[3],56.4 nM
same,TGI,[3],1140 nM
same,GI50,[4],19.5 nM
same,TGI,[4],41 nM
same,GI50,[5],33.5 nM
same,TGI,[5],220 nM
same,GI50,[6],20.5 nM
same,TGI,[6],40.5 nM
same,GI50,[7],14.3 nM
same,TGI,[7],34.6 nM
same,GI50,[8],24.2 nM
same,TGI,[8],158 nM
same,GI50,[9],33 nM
same,TGI,[9],1230 nM
same,GI50,[10],19.6 nM
same,TGI,[10],43.1 nM
same,GI50,[11],17.8 nM
same,TGI,[11],76.8 nM
same,GI50,[12],19.7 nM
same,TGI,[12],39.8 nM
same,GI50,[13],14.2 nM
same,TGI,[13],51.6 nM
same,GI50,[14],19.3 nM
same,TGI,[14],88.6 nM
same,GI50,[15],35.1 nM
same,TGI,[15],155 nM
same,GI50,[16],31.6 nM
same,TGI,[16],83.2 nM
same,GI50,[17],24.4 nM
same,TGI,[17],61.8 nM
same,GI50,[18],19.4 nM
same,TGI,[18],37.3 nM
same,GI50,[19],52.3 nM
same,TGI,[19],293 nM
same,GI50,[20],40.6 nM
same,TGI,[20],178 nM
same,GI50,[21],54.5 nM
same,TGI,[21],1290 nM
same,GI50,[22],32.8 nM
same,TGI,[22],85.2 nM
same,GI50,[23],20.7 nM
same,TGI,[23],35.3 nM
same,GI50,[24],22.2 nM
same,TGI,[24],47.2 nM
same,GI50,[25],50.2 nM
same,TGI,[25],194 nM
same,GI50,[26],25.2 nM
same,TGI,[26],65.5 nM
same,GI50,[27],36.5 nM
same,TGI,[27],132 nM
same,GI50,[28],24.7 nM
same,TGI,[28],53.7 nM
same,GI50,[29],18.8 nM
same,TGI,[29],35.3 nM
